# Results: ChEMBL document CHEMBL6078659, “Comprehensive Insights into the Development of Antitoxoplasmosis Drugs: Current Advances, Obstacles, and Future Perspectives” (J Med Chem, 2024)
# Starred links: 1 amine or outer side, 2 acyl side, 3 side chain; linkers in the order of their positions; H or OH if unused. Non-standard residues stand in square brackets, D forms with d. Residues, ends and D or L forms follow the SMILES beside them. X1 = CC[C@@H](C)[C@@H](O[*:1])C(=O)[*:2]; NMeVal(β-OH) = CN[C@H](C(=O)O)C(C)(C)O; NMeF = CN[C@@H](Cc1ccccc1)C(=O)O; NMeV = CN[C@H](C(=O)O)C(C)C
# Test system: Toxoplasma gondii
# Test: Antiparasitic activity against Toxoplasma gondii assessed as parasitic growth inhibition
# Assay type: functional, organism-based
# Settings: not given
row,Structure (SMILES),IC50
1,O=C(NNC(=S)Nc1ccc(F)cc1)c1cccs1,33.2 µM
2,C/C=C/C1=C(O)C(=O)c2ccccc2C1=O,3.01 µM
3,O=C1C2=C(C(=O)c3ccccc31)[C@H]1Oc3ccc(Cl)cc3[C@H]1CO2,< 10 µM
4,O=C1C2=C(C(=O)c3ccccc31)[C@H]1Oc3ccc(Br)cc3[C@H]1CO2,2.6 µM
5,CC(C)CCCc1ccc2c(c1)C(=O)C=C(N1CCCC1)C2=O,0.32 µM
6,O=C1C(O)=C([C@H]2CC[C@H](c3ccc(Cl)cc3)CC2)C(=O)c2ccccc21 [ATOVAQUONE],0.07 µM
7,COc1c(N2CCNC(C)C2)c(F)cc2c(=O)c(C(=O)O)cn(C3CC3)c12 (centres undefined) [GATIFLOXACIN],4.1 µg/mL
8,Cc1c(F)c(N2CCNC(C)C2)cc2c1c(=O)c(C(=O)O)cn2C1CC1 (centres undefined) [GREPAFLOXACIN],2.4 µg/mL
9,CC(C)=CCC1=C(O)C(=O)c2ccccc2C1=O [LAPACHOL],4.88 µM
10,COc1c(N2C[C@@H]3CCCN[C@@H]3C2)c(F)cc2c(=O)c(C(=O)O)cn(C3CC3)c12 [MOXIFLOXACIN],5.1 µg/mL
11,O=C1C2=C(C(=O)c3ccccc31)[C@H]1Oc3ccccc3[C@H]1CO2 [PTEROCARPANQUINONE],2.5 µM
12,N[C@@H]1[C@H]2CN(c3nc4c(cc3F)c(=O)c(C(=O)O)cn4-c3ccc(F)cc3F)C[C@@H]12 [TROVAFLOXACIN],0.4 µg/mL

# Test system: Toxoplasma gondii
# Test: Antiparasitic activity against Toxoplasma gondii
# Assay type: functional, organism-based
# Settings: not given
row,Structure (SMILES),IC50
1,COc1cc(/C=C/C(=O)C(=Cc2ccc(F)c(F)c2)C(=O)/C=C/c2ccc(O)c(OC)c2)ccc1O,0.8 µM
2,NC(=S)N/N=C(/COc1ccc(F)cc1)c1ccc(Cl)cc1,1.19 µM
3,CCCCCCCCCCCCCCCCC1(C)SC(=O)C(CCC)=C1O (centres undefined),2 µM
4,CCCCCCCCCCCCCCCCC1(C)SC(=O)C(Cc2ccccc2)=C1O (centres undefined),6 µM
5,COc1ccc(/C(COc2ccc(F)cc2)=N\NC(N)=S)cc1,1.09 µM
6,COc1cc(C2c3cc(c(O)cc3O)C(c3ccc(O)c(OC)c3)c3cc(c(O)cc3O)C(c3ccc(O)c(OC)c3)c3cc(c(O)cc3O)C(c3ccc(O)c(OC)c3)c3cc2c(O)cc3O)ccc1O (centres undefined),> 2000 µg/mL
7,COc1ccc(/C=C/C(=O)C(=Cc2ccc(F)c(F)c2)C(=O)/C=C/c2ccc(OC)c(OC)c2)cc1OC,0.33 µM
8,COc1cc(/C=C/C(=O)CC(=O)/C=C/c2ccc(O)c(OC)c2)ccc1O [CURCUMIN],38.3 µM
9,CC(C)=CCC/C(C)=C/CO [GERANIOL],4 µg/mL
10,Oc1ccc(/C=C/c2cc(O)cc(O)c2)cc1 [RESVERATROL],54.6 µM
11,Oc1cc(Cl)ccc1Oc1ccc(Cl)cc1Cl [TRICLOSAN],3 µM
12,COc1cc(C=O)ccc1O [VANILLIN],645 µg/mL

# Test system: Toxoplasma gondii
# Test: Antiparasitic activity against Toxoplasma gondii RH infected in human HFF cells
# Assay type: functional, organism-based
# Settings: not given
row,Structure (SMILES),IC50
1,CC1=C(c2nccs2)O[C@@H]2O[C@@]3(C)CC[C@H]4[C@H](C)CC[C@@H]1[C@@]24OO3,1 µM
2,CCCCCCCCCCCCc1c(C)n(O)c2ccccc2c1=O,0.0008 µM
3,C=C(C)C1CC=C(C)CC1 (centres undefined),241 µg/mL
4,Cc1[nH]c2cc(F)cc(F)c2c(=O)c1-c1ccc(Oc2ccc(OC(F)(F)F)cc2)cc1,0.005 µM
5,CC1=CCC(C(C)(C)O)CC1 (centres undefined),4.4 µg/mL
6,C/C=C/C1=C(O)C(=O)c2ccccc2C1=O,3.01 µM
7,O=C1C2=C(C(=O)c3ccccc31)[C@H]1Oc3ccc(Cl)cc3[C@H]1CO2,< 1 µM
8,O=C1C2=C(C(=O)c3ccccc31)[C@H]1Oc3ccc(Br)cc3[C@H]1CO2,2.6 µM
9,Cc1[nH]c2c(c(=O)c1-c1ccc(Oc3ccc(OC(F)(F)F)cc3)cc1)CCCC2,0.00012 µM
10,Fc1ccc(-c2csc(N/N=C/C3CC3)n2)cc1,18.1 µg/mL
11,CC(C)CCCc1ccc2c(c1)C(=O)C=C(N1CCCC1)C2=O,0.32 µM
12,Cc1nc[nH]c1-c1nnc(Nc2ccc(I)cc2)s1,4.76 µg/mL
13,CC(C)=CCC/C(C)=C\C=O,24 µg/mL
14,COC(=O)C1C(C)=CCCC1(C)C (centres undefined),242 µg/mL
15,C/C(=N\Nc1nc(-c2ccc([N+](=O)[O-])cc2)cs1)c1ccc(Nc2nc(N)nc(N)n2)cc1,14.9 µg/mL
16,COC(=O)Cn1c(C(=O)NS(=O)(=O)C2=Cc3ccccc3C2)cc2cc(OC)ccc21,0.13 µM
17,C[C@@H]1CC[C@H]2[C@@H](C)C(=O)O[C@@H]3O[C@@]4(C)CC[C@@H]1[C@]32OO4 [ARTEMISININ],1.7 µM
18,C=C(C)C1CC=C(C)C(=O)C1 (centres undefined) [CARVONE],16.1 µg/mL
19,CCCCCCCCCCCCc1c(C)c(=O)c2ccccc2n1O [COMPOUND A],0.0004 µM
20,CC(C)=CCC1=C(O)C(=O)c2ccccc2C1=O [LAPACHOL],0.4 µg/mL
21,C=CC(C)(O)CCC=C(C)C (centres undefined) [LINALOOL],4.48 µg/mL
22,Oc1ccccc1 [PHENOL],4.77 µg/mL
23,O=C1C2=C(C(=O)c3ccccc31)[C@H]1Oc3ccccc3[C@H]1CO2 [PTEROCARPANQUINONE],2.5 µM

# Test system: not listed separately
# Test: Cytotoxicity against African green monkey Vero cells by MTT assay
# Assay type: toxicity, cell-based
# Settings: African green monkey (Chlorocebus sabaeus)
row,Structure (SMILES),IC50
1,C/C(=N\Nc1nc(-c2ccc(Cl)c(Cl)c2)cs1)c1ccc(Nc2nc(N)nc(N)n2)cc1,14.9 µg/mL
2,NC(=S)N/N=C(/COc1ccc(F)cc1)c1ccc(Cl)cc1,1.19 µM
3,Fc1ccc(-c2csc(N/N=C/C3CC3)n2)cc1,18 µg/mL
4,COc1ccc(/C(COc2ccc(F)cc2)=N\NC(N)=S)cc1,1.09 µM

# Test system: not listed separately
# Test: Inhibition of Toxoplasma gondii Farnesyl pyrophosphate synthase
# Settings: not given
row,Structure (SMILES),IC50 [µM]
1,CCCCCCNCC(O)(P(=O)(O)O)P(=O)(O)O,4.7
2,O=C(CCCCSc1nc(-c2ccc(-c3ccccc3)cc2)cc(=O)[nH]1)NO,0.034
3,CC[C@]1(C)NC(=O)[C@H](CCCCCC(=O)[C@@H](C)OC(C)=O)NC(=O)[C@H]2C[C@H](C)CN2C(=O)[C@H](Cc2ccccc2)NC1=O,0.0102
4,CCCCCCCCCCS(=O)(=O)CC(P(=O)(O)O)P(=O)(O)O,0.11
5,CC[C@]1(C)NC(=O)[C@H](CCCCCC(=O)[C@@H](C)OC(=O)Oc2ccccc2)NC(=O)[C@H]2C[C@H](C)CN2C(=O)[C@H](Cc2ccccc2)NC1=O,0.0113
6,COc1cccc(CC(=O)Nc2ccc(C(=O)NO)cc2)c1,0.56

# Target: T1, Bifunctional dihydrofolate reductase-thymidylate synthase (Toxoplasma gondii, UniProt Q07422)
# T1 sequence (Q07422 whole entry): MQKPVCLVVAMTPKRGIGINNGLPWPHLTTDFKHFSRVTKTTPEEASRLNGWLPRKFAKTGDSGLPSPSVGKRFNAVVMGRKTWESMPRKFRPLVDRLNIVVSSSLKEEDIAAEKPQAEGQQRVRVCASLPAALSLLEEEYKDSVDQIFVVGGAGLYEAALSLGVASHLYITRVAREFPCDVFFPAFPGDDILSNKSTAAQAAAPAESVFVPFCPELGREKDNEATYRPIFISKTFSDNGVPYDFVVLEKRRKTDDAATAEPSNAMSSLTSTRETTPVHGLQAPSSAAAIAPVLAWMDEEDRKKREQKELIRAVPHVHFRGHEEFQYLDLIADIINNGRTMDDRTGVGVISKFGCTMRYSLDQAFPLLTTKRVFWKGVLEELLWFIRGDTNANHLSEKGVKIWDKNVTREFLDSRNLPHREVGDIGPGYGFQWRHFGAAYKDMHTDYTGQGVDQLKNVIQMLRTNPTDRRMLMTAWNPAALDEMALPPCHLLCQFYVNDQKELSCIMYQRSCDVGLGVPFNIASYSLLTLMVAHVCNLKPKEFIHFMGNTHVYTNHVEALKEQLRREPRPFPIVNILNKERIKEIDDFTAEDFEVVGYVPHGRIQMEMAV
# Test: Inhibition of Toxoplasma gondii Dihydrofolate reductase
# Settings: not given
row,Structure (SMILES),IC50 [µM]
1,Cc1ccc(CSc2ncnc3c2ncn3[C@@H]2C[C@H](CO)[C@@H](O)[C@H]2O)cc1,0.0119
2,CC1(C)N=C(N)N=C(N)N1OCCCOc1ccc(OC(F)(F)F)cc1Cl,0.02
3,O=C(c1ccccc1O)c1[nH]c(Cl)c(Cl)c1-n1c(C(=O)c2ccccc2O)cc(Cl)c1Cl,0.31
4,O=C(c1ccccc1O)c1[nH]c(Cl)c(Cl)c1-n1c(C(=O)c2ccc(Cl)cc2O)cc(Cl)c1Cl,0.16
5,O=C(c1cc(Br)c(F)[nH]1)c1cc(Cl)cc(Cl)c1O,0.17
6,Cc1cc(C)c(O)c(C(=O)c2cc(Br)c(Br)[nH]2)c1,0.09
7,CC[C@@H](C)[C@H]1OC(=O)[C@H](C(C)(C)O)N(C)C(=O)[C@H](CC(C)C)NC(=O)[C@H](C(C)C)N(C)C(=O)[C@H]([C@@H](C)CC)NC(=O)[C@@H]2CCCN2C(=O)[C@H](Cc2ccccc2)N(C)C(=O)[C@H](Cc2ccccc2)NC(=O)[C@H](C(C)C)N(C)C1=O [BASIFUNGIN] (cyclo(F[NMeF]PI[NMeV]L[NMeVal(β-OH)][X1][NMeV])),0.3
8,O=c1cc(-c2cccc3c2Sc2ccccc2S3)oc(N2CCOCC2)c1 [KU-55933],0.00215

# Test system: Toxoplasma gondii
# Test: Antiparasitic activity against Toxoplasma gondii RH
# Assay type: functional, organism-based
# Settings: not given
row,Structure (SMILES),IC50
1,Oc1ccc(-c2ccc3c(O)cc(O)cc3[o+]2)cc1,1.08 µg/mL
2,COc1cc(O)c2ccc(-c3ccc(O)cc3)[o+]c2c1,1.48 µg/mL
3,C=CCc1cc(OC)c(O[C@@H](C)[C@H](O)c2ccc(O)c(OC)c2)c(OC)c1,32.4 µg/mL
4,COc1cc(OC)c2ccc(-c3ccc(O)cc3)[o+]c2c1,0.53 µg/mL
5,"C[C@H]1[C@H](C)CC[C@]2(C(=O)Nc3nnn[nH]3)CC[C@]3(C)C(=CC[C@@H]4[C@@]5(C)CCC(=O)C(C)(C)[C@@H]5CC[C@]43C)[C@H]12 (single isomer, unassigned)",219 µM
6,C=C(C)[C@@H]1CC[C@]2(CO)CC[C@]3(C)[C@H](CC[C@@H]4[C@@]5(C)CCC(=O)C(C)(C)[C@@H]5CC[C@]43C)[C@@H]12 [BETULONE],2.7 µM
7,CC1(C)CC[C@]2(C(=O)O)CC[C@]3(C)C(=CC[C@@H]4[C@@]5(C)CC[C@H](O)[C@@](C)(CO)[C@@H]5CC[C@]43C)[C@@H]2C1 [HEDERAGENIN],548 µM
8,C/C=C/c1cc(OC)c2c(c1)[C@@H](C)[C@H](c1ccc3c(c1)OCO3)O2 [LICARINE B],14 µg/mL
9,Oc1cc(O)c2ccc(-c3ccc(O)c(O)c3)[o+]c2c1 [LUTEOLINIDIN],0.66 µg/mL
10,COc1cc(-c2cc(=O)c3c(O)cc(O)cc3o2)cc(OC)c1O [TRICIN],12.9 µg/mL

# Test system: Toxoplasma gondii
# Test: Antiparasitic activity against Toxoplasma gondii RH tachyzoites infected in human HFF cells assessed as parasitic growth inhibition
# Assay type: functional, organism-based
# Settings: not given
row,Structure (SMILES),IC50 [µM]
1,COc1ccc2c3ccnc(C)c3n(C)c2c1,1.8
2,O=c1c2ccc(Oc3ccc(OC(F)(F)F)cc3)cc2[nH]c2cc(Cl)cc(F)c12,0.03
3,C=CCC1[C@H](O[Si](C)(C)C(C)(C)C)C[C@@H](C(=O)OC)N1CC=C (some centres undefined),5.6
4,CC(C)(C)[Si](C)(C)O[C@@H]1C[C@@H](/C=C\I)N2CCCC[C@]12C,3.9
5,C=CCC1[C@H](O[Si](C)(C)C(C)(C)C)C[C@@H](C(=O)OC)N1C(=O)OC(C)(C)C (some centres undefined),3.9
6,O=C1CCC[C@@H]2[C@H]3CCCN4CCC[C@@H](CN12)[C@@H]34 [MATRINE],1010
7,O=C1CCC[C@@H]2[C@H]3CCC[N+]4([O-])CCC[C@@H](CN12)[C@@H]34 (some centres undefined) [OXYMATRINE],843
8,O=C1C=C2C=C[C@@H]3C[C@@]2(O1)[C@H]1CCCCN31 [SECURININE],9.8

# Test system: not listed separately
# Test: Cytotoxicity against African green monkey Vero cells assessed as reduction in cell viability by MTT assay
# Assay type: toxicity, cell-based
# Settings: African green monkey (Chlorocebus sabaeus)
row,Structure (SMILES),IC50 [µg/mL]
1,C=CCSSSC,66
2,CC1=CC[C@H]2[C@H]3[C@@H]1[C@]2(C)CC[C@H]3C(C)C,9.94
3,COC(=O)/C=C(\C)CCC=C(C)C,9
4,C=CCSSSCC=C [ALLITRIDIN],28
5,CC(C)=CCC/C(C)=C/C=O [CITRAL],9
6,C=CCSSCC=C [DIALLYLDISULFIDE],66.9
